Results as given in US20260262643A1, “HERBICIDAL BENZOXAZINES” (FMC CORPORATION, priority 2022, published 2026).

Experiments:
[1] = tested on: oat, wild; assay: Test C preemergence; type: in vivo, Avena fatua; conditions: for Plant response rating, Oat, Wild: Preemergence; for Oat, Wild plant response rating: preemergence
How it was run: (§1)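 Visual injury ratings on a 0–100 scale (100 = complete control) were made against untreated controls 10 days after treatment in the greenhouse. Compounds, formulated with surfactant in non-phytotoxic solvent, were sprayed on soil preemergence or onto one- to two-leaf plants 2–10 cm tall postemergence.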

[2] = tested on: galium; assay: Test C postemergence; type: in vivo, Galium aparine; conditions: 10 days
How it was run: as §1

[3] = tested on: ryegrass, Italian; assay: Test C postemergence; type: in vivo, Lolium multiflorum; conditions: 10 days
How it was run: as §1

[4] = tested on: barnyardgrass; assay: Test C preemergence; type: in vivo, Echinochloa crusgalli; conditions: for Plant response rating, Barnyardgrass: Preemergence; for Barnyardgrass plant response rating: preemergence
How it was run: as §1

[5] = tested on: blackgrass; assay: Test C postemergence; type: in vivo, Alopecurus myosuroides; conditions: 10 days
How it was run: as §1

[6] = tested on: ragweed; assay: Test C preemergence; type: in vivo, Ambrosia artemisiifolia; conditions: for Plant response rating, Ragweed: Preemergence; for Ragweed plant response rating: preemergence
How it was run: as §1

[7] = tested on: horseweed; assay: Test C postemergence; type: in vivo, Erigeron canadensis; conditions: 10 days
How it was run: as §1

[8] = tested on: ducksalad; assay: Test D flooded paddy test; type: in vivo, Heteranthera limosa; conditions: 250 g ai/ha, applied to paddy water, visual rating after 13 to 14 days, scale 0 to 100 (0 no effect, 100 complete control)
How it was run: (§2)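 Seedlings reached the 2-leaf stage, then pots were flooded to 3 cm over the soil surface. Compound was applied into the water, depth was maintained, and plants stayed in the greenhouse 13 to 14 days before visual scoring (0–100) relative to controls.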

[9] = tested on: wheat; assay: Test C preemergence; type: in vivo, Triticum aestivum; conditions: for Plant response rating, Wheat: Preemergence; for Wheat plant response rating: preemergence
How it was run: as §1

[10] = tested on: ragweed; assay: Test C postemergence; type: in vivo, Ambrosia artemisiifolia; conditions: 10 days
How it was run: as §1

[11] = tested on: soybean; assay: Test C preemergence; type: in vivo, Glycine max; conditions: for Plant response rating, Soybean: Preemergence; for Soybean plant response rating: preemergence
How it was run: as §1

[12] = tested on: pigweed, palmer; assay: Test C postemergence; type: in vivo, Amaranthus palmeri; conditions: 10 days
How it was run: as §1

[13] = tested on: ryegrass, Italian; assay: Test C preemergence; type: in vivo, Lolium multiflorum; conditions: for Plant response rating, Ryegrass, Italian: Preemergence; for Ryegrass, Italian plant response rating: preemergence
How it was run: as §1

[14] = tested on: blackgrass; assay: Test C preemergence; type: in vivo, Alopecurus myosuroides; conditions: for Plant response rating, Blackgrass: Preemergence; for Blackgrass plant response rating: preemergence
How it was run: as §1

[15] = tested on: rice; assay: Test D flooded paddy test; type: in vivo, Oryza sativa; conditions: 250 g ai/ha, applied to paddy water, visual rating after 13 to 14 days, scale 0 to 100 (0 no effect, 100 complete control)
How it was run: as §2

[16] = tested on: soybean; assay: Test C postemergence; type: in vivo, Glycine max; conditions: 10 days
How it was run: as §1

[17] = tested on: barnyardgrass; assay: Test C postemergence; type: in vivo, Echinochloa crusgalli; conditions: 10 days
How it was run: as §1

[18] = tested on: kochia; assay: Test C postemergence; type: in vivo, Bassia scoparia; conditions: 10 days
How it was run: as §1

[19] = tested on: sedge, umbrella; assay: Test D flooded paddy test; type: in vivo, Cyperus difformis; conditions: 250 g ai/ha, applied to paddy water, visual rating after 13 to 14 days, scale 0 to 100 (0 no effect, 100 complete control)
How it was run: as §2

[20] = tested on: kochia; assay: Test C preemergence; type: in vivo, Bassia scoparia; conditions: for Plant response rating, Kochia: Preemergence; for Kochia plant response rating: preemergence
How it was run: as §1

[21] = tested on: corn; assay: Test C postemergence; type: in vivo, Zea mays; conditions: 10 days
How it was run: as §1

[22] = tested on: wheat; assay: Test C postemergence; type: in vivo, Triticum aestivum; conditions: 10 days
How it was run: as §1

[23] = tested on: corn; assay: Test C preemergence; type: in vivo, Zea mays; conditions: for Plant response rating, Corn: Preemergence; for Corn plant response rating: preemergence
How it was run: as §1

[24] = tested on: green foxtail; assay: Test C postemergence; type: in vivo, Setaria viridis; conditions: 10 days
How it was run: as §1

[25] = tested on: barnyardgrass; assay: Test D flooded paddy test; type: in vivo, Echinochloa crus-galli; conditions: 250 g ai/ha, applied to paddy water, visual rating after 13 to 14 days, scale 0 to 100 (0 no effect, 100 complete control)
How it was run: as §2

[26] = tested on: green foxtail; assay: Test C preemergence; type: in vivo, Setaria viridis; conditions: for Plant response rating, Foxtail, Green: Preemergence; for Foxtail, Green plant response rating: preemergence
How it was run: as §1

[27] = tested on: pigweed, palmer; assay: Test C preemergence; type: in vivo, Amaranthus palmeri; conditions: for Plant response rating, Pigweed, Palmer: Preemergence; for Pigweed, Palmer plant response rating: preemergence
How it was run: as §1

[28] = tested on: oat, wild; assay: Test C postemergence; type: in vivo, Avena fatua; conditions: 10 days
How it was run: as §1

[29] = 500 g ai/ha, visual rating after 10 days, 0 to 100 scale (0 no effect, 100 complete control)
[30] = Test C, 125 g ai/ha, 0 to 100 scale (0 no effect, 100 complete control)
[31] = 125 g ai/ha, postemergence, 0 to 100 scale, 0 no effect, 100 complete control
[32] = Postemergence, 500 g ai/ha, visual 0 to 100 scale (0 no effect, 100 complete control)
[33] = 500 g ai/ha, 0 to 100 scale (0 no effect, 100 complete control)
[34] = 125 g ai/ha, 0 to 100 scale, 0 no effect, 100 complete control
[35] = 500 g ai/ha, postemergence, 0 to 100 scale (0 no effect, 100 complete control)
[36] = Postemergence, 125 g ai/ha, 0 to 100 scale (0 no effect, 100 complete control)

In the case of `CCc1ncn(-c2ccc(C)c(C(=O)N3CC(C(F)(F)F)Oc4c(Cl)cccc43)c2)n1` (single isomer, unassigned) [Compound 218], the “Plant response rating, Oat, Wild” value [1, 29] is reported as 90, the “Oat, Wild plant response rating” value [1, 30] is reported as 60 and the “Plant response rating, Galium” value [2, 31] is reported as 100. The “Plant response rating, Galium” value [2, 32] was 100, the “Plant response rating, Ryegrass, Italian” value [3, 31] was 80 and the “Plant response rating, Ryegrass, Italian” value [3, 32] was 90. For the same molecule, the “Plant response rating, Barnyardgrass” value [4, 29] was 100, the “Barnyardgrass plant response rating” value [4, 30] was 100 and the “Plant response rating, Blackgrass” value [5, 31] was 90. The “Plant response rating, Blackgrass” value [5, 32] was 100, the “Plant response rating, Ragweed” value [6, 29] was 80 and the “Ragweed plant response rating” value [6, 30] was 20. For the same molecule, the “Plant response rating, Horseweed” value [7, 31] was 0, the “Plant response rating, Horseweed” value [7, 32] was 70 and the “Plant response rating, Ducksalad (Flood)” value [8] was 60. For the same molecule, the “Plant response rating, Wheat” value [9, 29] was 80, the “Wheat plant response rating” value [9, 30] was 30 and the “Plant response rating, Ragweed” value [10, 31] was 80. The “Plant response rating, Ragweed” value [10, 32] was 80, the “Plant response rating, Soybean” value [11, 29] was 100 and the “Soybean plant response rating” value [11, 30] was 90. The “Plant response rating, Pigweed, Palmer” value [12, 31] was 90, the “Plant response rating, Pigweed, Palmer” value [12, 32] was 90 and the “Plant response rating, Ryegrass, Italian” value [13, 29] was 90. The “Ryegrass, Italian plant response rating” value [13, 30] was 90, the “Plant response rating, Blackgrass” value [14, 29] was 80 and the “Blackgrass plant response rating” value [14, 30] was 40. For the same molecule, the “Plant response rating, Rice (Flood)” value [15] was 0, the “Plant response rating, Soybean” value [16, 31] was 100 and the “Plant response rating, Soybean” value [16, 32] was 100. The “Plant response rating, Barnyardgrass” value [17, 31] was 100, the “Plant response rating, Barnyardgrass” value [17, 32] was 100 and the “Plant response rating, Kochia” value [18, 31] was 90. The “Plant response rating, Kochia” value [18, 32] was 100, the “Plant response rating, Sedge, Umbrella (Flood)” value [19] was 80 and the “Plant response rating, Kochia” value [20, 29] was 100. For the same molecule, the “Kochia plant response rating” value [20, 30] was 90, the “Plant response rating, Corn” value [21, 31] was 70 and the “Plant response rating, Corn” value [21, 32] was 70. For the same molecule, the “Plant response rating, Wheat” value [22, 31] was 60, the “Plant response rating, Wheat” value [22, 32] was 90 and the “Plant response rating, Corn” value [23, 29] was 60. For the same molecule, the “Corn plant response rating” value [23, 30] was 20, the “Plant response rating, Foxtail, Green” value [24, 31] was 90 and the “Plant response rating, Foxtail, Green” value [24, 32] was 90. The “Plant response rating, Barnyardgrass (Flood)” value [25] was 0, the “Plant response rating, Foxtail, Green” value [26, 29] was 100 and the “Foxtail, Green plant response rating” value [26, 30] was 100. For the same molecule, the “Plant response rating, Pigweed, Palmer” value [27, 29] was 100, the “Pigweed, Palmer plant response rating” value [27, 30] was 100 and the “Plant response rating, Oat, Wild” value [28, 31] was 30. The “Plant response rating, Oat, Wild” value [28, 32] was 80.

In the case of `CCOCC1CN(C(=O)c2cc(-n3cnc(C(C)(C)C)n3)ccc2OC)c2cccc(Cl)c2O1` (centres unmarked) [Compound 379], the “Oat, Wild plant response rating” value [1, 33] is reported as 80, the “Plant response rating, Oat, Wild” value [1, 34] is reported as 30 and the “Plant response rating, Galium” value [2, 35] is reported as 100. For the same molecule, the “Plant response rating, Galium” value [2, 36] was 70, the “Plant response rating, Ryegrass, Italian” value [3, 35] was 50 and the “Plant response rating, Ryegrass, Italian” value [3, 36] was 30. The “Barnyardgrass plant response rating” value [4, 33] was 100, the “Plant response rating, Barnyardgrass” value [4, 34] was 60 and the “Plant response rating, Blackgrass” value [5, 35] was 30. For the same molecule, the “Plant response rating, Blackgrass” value [5, 36] was 30, the “Ragweed plant response rating” value [6, 33] was 80 and the “Plant response rating, Ragweed” value [6, 34] was 0. The “Plant response rating, Horseweed” value [7, 35] was 30, the “Plant response rating, Horseweed” value [7, 36] was 0 and the “Plant response rating, Ducksalad (Flood)” value [8] was 55. The “Wheat plant response rating” value [9, 33] was 40, the “Plant response rating, Wheat” value [9, 34] was 20 and the “Plant response rating, Ragweed” value [10, 35] was 90. For the same molecule, the “Plant response rating, Ragweed” value [10, 36] was 30, the “Soybean plant response rating” value [11, 33] was 90 and the “Plant response rating, Soybean” value [11, 34] was 90. For the same molecule, the “Plant response rating, Pigweed, Palmer” value [12, 35] was 100, the “Plant response rating, Pigweed, Palmer” value [12, 36] was 80 and the “Ryegrass, Italian plant response rating” value [13, 33] was 90. For the same molecule, the “Plant response rating, Ryegrass, Italian” value [13, 34] was 70, the “Blackgrass plant response rating” value [14, 33] was 0 and the “Plant response rating, Blackgrass” value [14, 34] was 0. The “Plant response rating, Rice (Flood)” value [15] was 15, the “Plant response rating, Soybean” value [16, 35] was 100 and the “Plant response rating, Soybean” value [16, 36] was 100. The “Plant response rating, Barnyardgrass” value [17, 35] was 60, the “Plant response rating, Barnyardgrass” value [17, 36] was 30 and the “Plant response rating, Kochia” value [18, 35] was 90. The “Plant response rating, Kochia” value [18, 36] was 90, the “Plant response rating, Sedge, Umbrella (Flood)” value [19] was 65 and the “Kochia plant response rating” value [20, 33] was 100. The “Plant response rating, Kochia” value [20, 34] was 80, the “Plant response rating, Corn” value [21, 35] was 50 and the “Plant response rating, Corn” value [21, 36] was 30. For the same molecule, the “Plant response rating, Wheat” value [22, 35] was 20, the “Plant response rating, Wheat” value [22, 36] was 10 and the “Corn plant response rating” value [23, 33] was 30. The “Plant response rating, Corn” value [23, 34] was 30, the “Plant response rating, Foxtail, Green” value [24, 35] was 20 and the “Plant response rating, Foxtail, Green” value [24, 36] was 20. The “Plant response rating, Barnyardgrass (Flood)” value [25] was 35, the “Foxtail, Green plant response rating” value [26, 33] was 100 and the “Plant response rating, Foxtail, Green” value [26, 34] was 80. For the same molecule, the “Pigweed, Palmer plant response rating” value [27, 33] was 100, the “Plant response rating, Pigweed, Palmer” value [27, 34] was 100 and the “Plant response rating, Oat, Wild” value [28, 35] was 10. The “Plant response rating, Oat, Wild” value [28, 36] was 0.
